Laboratory results published in patent US10054581B1, “Inhibitors of notch signaling pathway and use thereof in treatment of cancers” (Ecole Polytechnique Federale de Lausanne (EPFL), priority 2011, dated 2018).
Entries after “also recorded” stand apart in the source; their conditions may differ.

Assays:
[1] = tested on: Notch1-intracellular domain (NICD) mediated Notch signalling; experiment: NICD transfected HeLa cells, 12×CSL luciferase reporter; type: cell-based; settings: HeLa cells transfected with NICD; I3 2-40 μM, DAPT 5-40 μM
From the text: To measure the Notch signalling activation, CSL/RBP-jk consensus DNA binding sequences were cloned in a head to tail conformation in the pGL4 luciferase vector (Promega), thus named 12×CSL/RBP-jjk luciferase vector. In order to determine the Notch pathway activation in chemical compound screening assay, 12×CSL/RBP-jk consensus DNA binding sequences were cloned into pGL4.26.luciferase vector (Promega). As an internal control for transfection efficiency, SV40 Renilla vector was used (Promega).
NICD-GFP overexpression studies were performed using pEGFP-C1-NICD expression plasmid. The FLAG-CMV2 plasmid expressing MAML1-FLAG was a kind gift from Dr. Lizi Wu, Harvard Medical School, Boston.
The transfected cells were treated with an increasing concentration of I3 and DAPT.

C2C12 myoblasts = experiment: C2C12 myoblast differentiation assay; type: cell-based; settings: growth medium (10% serum), 3 days
Experimental: C2C12 cells were grown on collagen-coated cover slip in the presence of growth media (10% serum). To induce myoblast differentiation, cells were grown to 100% confluency for 3 days in the presence of differentiation media (2% horse serum) or in the presence of growth media+Notch inhibitors. After 3 days, cells were washed with 1× ice-cold PBS and fixed with 4% PFA. Immunofluorescence staining was performed using anti-MHC antibody as explained in the section 2.2.6 (Immunofluorescence staining).
To further confirm the Notch inhibitory potential of 6-(4-Tert-Butylphenoxy)Pyridin-3-Amine (I3) in different systems, C2C12 myoblast differentiation was used as a functional assay. The Notch pathway activation in C2C12 myoblasts retains them in an undifferentiated state, while abrogation of Notch signalling induces their differentiation. C2C12 myoblasts were treated with DMSO, 6-(4-Tert-Butylphenoxy)Pyridin-3-Amine (I3) and DAPT and grown to 100% confluency for 3 days. After three days, cells were fixed and stained with antibodies against Myosin Heavy Chain (MHC) protein. Cell nuclei were counterstained with DAPI.

[2] = tested on: HCC1187 human breast cancer cell line; experiment: Alamar blue proliferation assay, HCC1187; type: cell-based; settings: 6 days
Experimental: (§1) FIGS. 5A-5E show 6-(4-Tert-Butylphenoxy)Pyridin-3-Amine (I3) blocks NICD dependent growth of human cancer cells. […] Western blot analyses were carried out for Hes1 protein using Hes1 specific antibodies. […] Growth kinetics of the parental cell line was followed over 5 days using Alamar blue readout. […] This mutation renders this cell line insensitive to γ-secretase inhibitor treatment. […] The cells were treated with DMSO, γ-secretase inhibitor DAPT and I3 for 6 days. Alamar blue readout was taken at day 0, day 2, day 4 and day 6. Eight replicates were used for each treatment and time point. […] P values were calculated using Student's t.test. *=p value<0.05. ns=not significant.
(§2) Alamarblue® proliferation assays were performed to determine the growth kinetics of Notch inhibitor treated cells. Alamar Blue® consists of a cell permeable substrate resazurin. In metabolically active and proliferating cells, resazurin is converted to resorufin due to an intrinsic reducing power of live cells and produces a red fluorescence. Therefore production of resorufin serves as an indicator of the viability of the cell population.
(§3) Proliferation assays were performed by seeding 5000 cells/well in a 96 well plate. Cells were treated with DMSO or Notch inhibitors for different time intervals. […] Alamarblue readout was taken using Tecan F500 (Tecan) multiplate reader. […]

DND41-Parental cell line = experiment: Alamar blue proliferation assay, DND41-Parental; type: cell-based, human; settings: over 5 days
Experimental: as §1
Alamarblue® proliferation assays were performed to determine the growth kinetics of Notch inhibitor treated cells. […] In metabolically active and proliferating cells, resazurin is converted to resorufin due to an intrinsic reducing power of live cells and produces a red fluorescence. […]
Proliferation assays were performed by seeding 5000 cells/well in a 96 well plate. […] Alamarblue readout was taken using Tecan F500 (Tecan) multiplate reader.
6-(4-Tert-Butylphenoxy)Pyridin-3-Amine (I3) can block NICD mediated activation of the Notch pathway (FIGS. 1A-D). […] In addition, these two cell lines were also monitored over several days for anti-proliferative effects of 6-(4-Tert-Butylphenoxy)Pyridin-3-Amine (I3) and DAPT.

PANC1 = experiment: Alamar blue proliferation assay, PANC1; type: cell-based, human; settings: 10 μM, 4 days
Experimental: (§4) Human T-ALL cell lines RPMI 8402 and KOPTK1, and pancreatic cancer cell line PANC1 as well as nRas driven melanoma cells were seeded in a 96 well plate and treated with 10 μM concentration of 6-(4-Tert-Butylphenoxy)Pyridin-3-Amine (I3) and DAPT for several days. Their growth inhibitory effects were compared with cells treated with equal amount of DMSO. Using Alamar blue assay, the growth kinetics of RPMI 8402 and KOPTK1 were followed for upto 6 days, while PANC1 and nRas melanoma cells were monitored for 4 days. 6-(4-Tert-Butylphenoxy)Pyridin-3-Amine (I3) treatment of RPMI 8402, KOPTK1. […] Statistical analyses were done using student's t.test. *=p value<0.05. ns=not significant.
as §2, §3

KOPTK1 = experiment: Alamar blue proliferation assay, KOPTK1; type: cell-based, human; settings: 10 μM, up to 6 days
Experimental: as §4, §2, §3

[3] = tested on: Notch signalling via DL4:N1 ligand-receptor pair (Notch1); experiment: DL4:N1 coculture assay, Notch driven luciferase reporter; type: cell-based, mouse; settings: 24 hours; for Notch signalling activation (Notch driven luciferase), concentration dependence: 2, 5 and 10 μM

| SMILES | NICD mediated Notch signalling activation [1] | differentiation into MHC positive myotubes (C2C12 myoblasts) | proliferation (Alamar blue) [2] | proliferation (Alamar blue) (DND41-Parental cell line) | proliferation (Alamar blue) (PANC1) | proliferation (Alamar blue) (KOPTK1) | Notch signalling activation (Notch driven luciferase), concentration dependence [3] | IC50 value, Notch signalling in DL4:N1 coculture assay ([3]; increasing concentration 2-10 μM) |
| --- | --- | --- | --- | --- | --- | --- | --- | --- |
| C[C@H](NC(=O)Cc1cc(F)cc(F)c1)C(=O)N[C@H](C(=O)OC(C)(C)C)c1ccccc1 [DAPT, N—[N-(3,5-difluorophenacetyl-Lalanyl)]-(S)-phenylglycine t-butyl ester, reference compound] | had no effect on the signalling activation; also recorded: had no effect on Notch signalling activation mediated by NICD | started to differentiate into multinucleated MHC positive myotubes | did not inhibit proliferation; also recorded: did not alter the growth kinetics | caused a significant proliferative block; also recorded: caused a proliferation arrest | induced a significant proliferation block | induced a significant proliferation block | causes a concentration dependent decrease in Notch signalling activation |  |
| CC(C)(C)c1ccc(Oc2ccc(N)cn2)cc1 [I3, 6-(4-Tert-Butylphenoxy)Pyridin-3-Amine] | could block pathway activation in a dose-dependent manner; also recorded: could also block pathway activation by Notch1-intracellular domain (NICD) and Notch2-intracellular domain (N2-ICD); also recorded: led to an attenuation of the signalling; also recorded: inhibits pathway activation via intracellular domains of Notch1 (NICD) and Notch2 (N2-ICD); also recorded: found to block NICD mediated pathway activation | started to differentiate into multinucleated MHC positive myotubes; also recorded: can induce differentiation of C2C12 cells into MHC expressing multinucleated myotubes | significantly induced a proliferation block; also recorded: caused statistically significant inhibition of cell proliferation | caused a significant proliferative block; also recorded: caused a proliferation arrest | induced a significant proliferation block; also recorded: caused a significant reduction in their growth potential | induced a significant proliferation block; also recorded: caused a significant reduction in their growth potential | blocks Notch signalling in a concentration dependent manner; also recorded: causes a concentration dependent decrease in Notch signalling activation | in the lower μM range |
